Experimental data from PMC11375702, “Early Preclinical Studies of Ergosterol Peroxide and Biological Evaluation of Its Derivatives” (ACS Omega, 2024).

What was measured:
[1] = Plasma protein binding, rapid equilibrium dialysis (human); format: in vitro ADME; conditions: read-out: plasma binding (human) protein binding (converted)
Description: This assay determines the plasma protein binding of a drug or compound and free drug concentration in plasma using rapid equilibrium dialysis. We use the Single-Use RED (rapid equilibrium dialysis, Thermo Scientific) devices to allow the aqueous component of plasma containing the free drug/compound through a dialysis membrane (MWCO ∼ 8000). Sample quantification is determined using a Waters ACQUITY-SOQ UPLC-MS-ELDS-UV system.

[2] = Maximum tolerated dose (MTD) study, single oral dose; format: in vivo, mouse; conditions: for Gross pathology, External Abnormalities: No Abnormality Detected (number of mice) / Gross pathology, Internal Abnormalities: No Abnormality Detected (number of mice): 6 mice examined
Description: The study was conducted according to published and acceptable experimental conditions reported.[53] Animal protocols approved by LSU#IACUCAM21065 and UCC# 037–2021–16–01-PHA-IBC. Briefly, male and female Balb/c mice were given a single oral dose administration of ergosterol peroxide to C57BL/6 female and male mice (5–8 weeks old), followed by 7 days postdose observations. Toxicity is defined as a 20% loss of body weight. The study comprised three groups for a toxicity phase including: one control and two EP-treated groups (G2 and G3), having 6 mice/sex/group. Mice from groups G2 (300 mg/kg BW) and G3 (500 mg/kg BW) were administered an EP uniform suspension (light yellow), once by oral gavage. The mice from the control group (G1) received a 1% v/v Tween 80 and 0.5% w/v NaCMC in the RO water suspension. The dosing volume was kept constant at 10 mL/kg for each mouse. Then, animals were euthanized, and organs (liver, lung, heart, and kidney) were collected to check global signs of toxicity. Parameters evaluated included observation for clinical signs, body weight, body weight gain, feed consumption, clinical chemistry, and gross pathology. The total animals per MTD was 36 mice.

SMILES: CC(C)[C@@H](C)/C=C/[C@@H](C)[C@H]1CC[C@@H]2[C@]1(C)CC[C@H]1[C@]23C=C[C@]2(C[C@@H](O)CC[C@]12C)OO3 [Compound 2, Ergosterol peroxide]
- fraction unbound [1]: 0.28
- decrease in albumin vs vehicle control ([2]; 300 mg/kg (G2), male mice): 6%
- decrease in triglycerides vs vehicle control ([2]; 500 mg/kg (G3), male mice): 19%
- MTD at 7 days ([2]; both sexes, mouse, in vivo, single oral dose, male or female mice): > 500 mg/kg
- ALB, mean ([2]; female, 300 mg/kg): 3.08 g/dL
- ALP, mean ([2]; female, 300 mg/kg): 394.32 U/L
- ALT, mean ([2]; female, 300 mg/kg): 44.99 U/L
- AST, mean ([2]; female, 300 mg/kg): 88.20 U/L
- BUN, mean ([2]; female, 300 mg/kg): 16.45 mg/dL
- CREA, mean ([2]; female, 300 mg/kg): 0.21 mg/dL
- TGL, mean ([2]; female, 300 mg/kg): 38.15 mg/dL
- Gross pathology, External Abnormalities: No Abnormality Detected (number of mice) ([2]; female, 300 mg/kg): 6
- Body Weight, mean ([2]; female, 300 mg/kg, day 1): 21.05 g
- Food Consumption, Average Feed Intake/ Animal ([2]; female, 300 mg/kg, day 1 to 4): 12.3 g/Animal
- Body Weight, mean ([2]; female, 300 mg/kg, day 4): 21.15 g
- Food Consumption, Average Feed Intake/ Animal ([2]; female, 300 mg/kg, day 4 to 7): 12.2 g/Animal
- Body Weight, mean ([2]; female, 300 mg/kg, day 7): 21.45 g
- ALB, mean ([2]; female, 500 mg/kg): 3.03 g/dL
- ALP, mean ([2]; female, 500 mg/kg): 400.51 U/L
- ALT, mean ([2]; female, 500 mg/kg): 47.50 U/L
- AST, mean ([2]; female, 500 mg/kg): 75.14 U/L
- BUN, mean ([2]; female, 500 mg/kg): 17.63 mg/dL
- CREA, mean ([2]; female, 500 mg/kg): 0.20 mg/dL
- TGL, mean ([2]; female, 500 mg/kg): 30.51 mg/dL
- Gross pathology, External Abnormalities: No Abnormality Detected (number of mice) ([2]; female, 500 mg/kg): 6
- Body Weight, mean ([2]; female, 500 mg/kg, day 1): 21.27 g
- Food Consumption, Average Feed Intake/ Animal ([2]; female, 500 mg/kg, day 1 to 4): 12.3 g/Animal
- Body Weight, mean ([2]; female, 500 mg/kg, day 4): 21.17 g
- Food Consumption, Average Feed Intake/ Animal ([2]; female, 500 mg/kg, day 4 to 7): 11.8 g/Animal
- Body Weight, mean ([2]; female, 500 mg/kg, day 7): 21.53 g
- ALB, mean ([2]; male, 300 mg/kg): 2.91 g/dL
- ALP, mean ([2]; male, 300 mg/kg): 312.51 U/L
- ALT, mean ([2]; male, 300 mg/kg): 34.83 U/L
- AST, mean ([2]; male, 300 mg/kg): 47.80 U/L
- BUN, mean ([2]; male, 300 mg/kg): 16.45 mg/dL
- CREA, mean ([2]; male, 300 mg/kg): 0.17 mg/dL
- TGL, mean ([2]; male, 300 mg/kg): 51.23 mg/dL
- Gross pathology, External Abnormalities: No Abnormality Detected (number of mice) ([2]; male, 300 mg/kg): 6
- Gross pathology, Internal Abnormalities: No Abnormality Detected (number of mice) ([2]; male, 300 mg/kg): 6
- Body Weight, mean ([2]; male, 300 mg/kg, day 1): 21.85 g
- Food Consumption, Average Feed Intake/ Animal ([2]; male, 300 mg/kg, day 1 to 4): 14.9 g/Animal
- Body Weight, mean ([2]; male, 300 mg/kg, day 4): 22.28 g
- Food Consumption, Average Feed Intake/ Animal ([2]; male, 300 mg/kg, day 4 to 7): 14.6 g/Animal
- Body Weight, mean ([2]; male, 300 mg/kg, day 7): 23.03 g
- ALB, mean ([2]; male, 500 mg/kg): 3.03 g/dL
- ALP, mean ([2]; male, 500 mg/kg): 412.86 U/L
- ALT, mean ([2]; male, 500 mg/kg): 54.07 U/L
- AST, mean ([2]; male, 500 mg/kg): 91.50 U/L
- BUN, mean ([2]; male, 500 mg/kg): 17.06 mg/dL
- CREA, mean ([2]; male, 500 mg/kg): 0.17 mg/dL
- TGL, mean ([2]; male, 500 mg/kg): 46.91 mg/dL
- Gross pathology, External Abnormalities: No Abnormality Detected (number of mice) ([2]; male, 500 mg/kg): 6
- Gross pathology, Internal Abnormalities: No Abnormality Detected (number of mice) ([2]; male, 500 mg/kg): 6
- Body Weight, mean ([2]; male, 500 mg/kg, day 1): 22.62 g
- Food Consumption, Average Feed Intake/ Animal ([2]; male, 500 mg/kg, day 1 to 4): 10.4 g/Animal
- Body Weight, mean ([2]; male, 500 mg/kg, day 4): 22.70 g
- Food Consumption, Average Feed Intake/ Animal ([2]; male, 500 mg/kg, day 4 to 7): 13.7 g/Animal
- Body Weight, mean ([2]; male, 500 mg/kg, day 7): 22.27 g
- clinical signs ([2]; oral, 300 and 500 mg/kg, mice): no abnormal clinical signs
